Earlier results as cited in US11135586B2, “Fluorinated pickering emulsion” (The Board of Trustees of the Leland Stanford Junior …, priority 2014, dated 2021).

## O=C1OC2(c3ccc(O)cc3Oc3cc(O)ccc32)c2ccccc21 [fluorescein]
  Time without leakage in drops stabilized by surfactants: at least 36 hours
